These results are taken from patent publication US9725702B2, “Laccase from ganoderma lucidum capable of enhancing enzymatic degradation of lignocellulolytic biomass” (DANMARKS TEKNISKE UNIVERSITET, priority 2012, dated 2017).

Where two headings read alike, the source gives them in different places.

In data set [1] the test system is LacGL1 laccase from Ganoderma lucidum, expressed in Pichia pastoris. Type of data set: biochemical. Here is the method: (§1) The laccase activity was measured based on a modified method of Ters et al. (2009). The laccase activity was defined as the amount of the enzyme required to oxidise 1 μmol of ABTS per minute at 25° C., and pH 4.7. The assay mixture contained: 0.1 M citrate-phosphate buffer (255 μL, pH 4.7), ABTS (5 μL, 4 mM (ABTS stock solution)), and pre-diluted laccase (5 μL) that ensured the linear range of Michaelis-Menten kinetics. The oxidation of ABTS was monitored at 420 nm (ε420=36800 M^−1cm^−1) for 2 min. in an Infinite 200 microtiter plate reader (Tecan, Salzburg, Austria). Laccase activity assays on the substrates: hydroquinone (248 nm), 2.6-dimethoxyphenol (470 nm), and guaiacol (436 nm) was done similarly with the substrate concentration as described in Table 2 using the following extinction coefficient values: 17.542 M^−1cm^−1, 35.645 M^−1cm^−1, and 6.400 M^−1cm^−1, respectively (Minussi et al. 2007). The data collection was monitored by the program Tecan i-control version 1.5.14.0 (Tecan, Salzburg, Austria).

Data set [2] deals with fungal laccase. In kind it is biochemical, Ganoderma lucidum. Here is the method: as §1
The subject of data set [3] is laccase from the crude extract of G. lucidum (Lac_GLCE). In kind it is biochemical, Ganoderma lucidum. Here is the method: as §1
The nature of data set [4]: Laccase-cellulase catalyzed hydrolysis of pretreated biomass, glucose release. In kind it is biochemical. Particulars: with cellulase 1 or 2, pH 5.1, 50° C., 30 hour, p<0.05. As for the experimental part:
FIG. 13. A graphical comparison of glucose released over time during hydrolysis of STEX-SCB at pH 5.1 and 50° C. by each of commercial enzyme preparations Cellulase 1 (CC2) [A]; or Cellulase 2 [B], either alone, or in combination with a laccase enzyme; the tested laccases being respectively LacGL1 and GLlac1 (LacJooSS; Q9HG17) derived from G. lucidum; and laccases derived from Agaricus bisporus (Sigma 40452), Pleurotus ostreatus (Sigma 75117) and, Trametes versicolor (Sigma 51639).
(§2) The commercial fungal laccases were purchased as lyophilized protein samples from Sigma Aldrich. A solution of each of the above 5 laccases was prepared in a citric buffer containing 20% of glycerol (pH 5.1, 100 mM).
(§3) Two different commercially available cellulase enzyme preparations used in the comparative study were “Cellulase 1” and “Cellulase 2”, which were tested in combination with each of the laccases listed above.
(§4) The three different types of pretreated biomass used in the comparative study were sugarcane bagasse, barley straw and wheat straw. The source and pre-treatment of the sugarcane bagasse by steam explosion was as set out in Example 9. […] The composition of the dry and the pretreated biomass were determined according to the US National Renewable Energy Laboratory (NREL) procedures (Sluiter et al, 2010).
(§5) The laccase-cellulase catalyzed hydrolysis of the pretreated biomass samples to release glucose was performed as follows: Hydrolysis of 5% (w/v) samples of pretreated sugarcane bagasse, barley straw, and wheat straw biomass were assayed using an Enzyme/Substrate (E/S) ratio of 0.064% w/w for laccases and of 0.4% w/w for each commercial cellulase preparation in each hydrolysis reaction. The E/S dosage was based on the total protein concentration used, as determined using Pierce BCA (BiCinchoninic Acid) protein assay kit microplate procedure according to manufacturer's instruction (Thermo Fisher Scientific, Rockford, US). […]
(§6) Laccase and cellulase-mediated hydrolysis of the 3 biomass forms, measured as glucose release, are shown graphically in FIGS. 13, 14 and 15. […]

Assay in data set [5]: as above
Particulars: with cellulase 1 or 2, pH 5.1, 50° C., 30 hour, p<0.05. Type of data set: biochemical. Here is the method: FIG. 14. A graphical comparison of glucose released over time during hydrolysis of pre-treated barley straw at pH 5.1 and 50° C. by each of commercial enzyme preparations Cellulase 1 (CC2) [A]; or Cellulase 2 [B], either alone, or in combination with a laccase enzyme; the tested laccases being respectively LacGL1 and GLlac1 (LacJooSS; Q9HG17) derived from G. lucidum; and laccases derived from Agaricus bisporus (Sigma 40452), Pleurotus ostreatus (Sigma 75117) and, Trametes versicolor (Sigma 51639).
as §2, §3, §4, §5, §6
The source holds these as a separate data set.

Assay in data set [6]: as above
Type of data set: biochemical. Particulars: with cellulase 1 or 2, pH 5.1, 50° C., 30 hour, p<0.05. Here is the method:
FIG. 15. A graphical comparison of glucose released over time during hydrolysis of pre-treated wheaty straw at pH 5.1 and 50° C. by each of commercial enzyme preparations Cellulase 1 (CC2) [A]; or Cellulase 2 [B], either alone, or in combination with a laccase enzyme; the tested laccases being respectively LacGL1 and GLlac1 (LacJooSS; Q9HG17) derived from G. lucidum; and laccases derived from Agaricus bisporus (Sigma 40452), Pleurotus ostreatus (Sigma 75117) and, Trametes versicolor (Sigma 51639).
as §2, §3, §4, §5, §6
This is another data set of the same source.

For data set [7] the following is noted: cited from earlier work; for Km: ABTS, expressed in Pichia pastoris (Sun et al., 2012).
Data set [8] is described as follows: Michaelis constant (Km) of laccase for ABTS, Hanes-Wolf plot. Type of data set: biochemical. Particulars: substrate ABTS.

Regarding `O=C(O)CN(CCN(CC(=O)O)CC(=O)O)CC(=O)O` [EDTA], the Inhibition (commonly the change of the read-out against control, counted positive when it falls) in data set [1] is reported as 16%; in data set [2] it was 16-30%; in data set [3], 30%.
As to `[F-].[Na+]` [Sodium fluoride], the Inhibition in data set [1] (0.0001 mM) was 8%; in data set [1] (0.0005 mM), 13%; in data set [1] (0.001 mM), 19%; in data set [1] (0.01 mM), 22%; in data set [1] (0.1 mM), 46%; in data set [2] (0.1 mM) it was 46-56%. The Inhibition in data set [3] (0.0001 mM) is 23%; in data set [3] (0.0005 mM), 24%; in data set [3] (0.001 mM), 28%; in data set [3] (0.01 mM), 38%; in data set [3] (0.1 mM), 56%.
Consider `O[C@H](CS)[C@H](O)CS` (racemic) [Dithiothreitol], for which the Inhibition in data set [1] (0.5 mM), in data set [2] (0.5 mM) and in data set [3] (0.5 mM) was 100% in each case.

B1: GLlac1: Laccase from Ganoderma lucidum strain 7071-9 (UniProt Q9HG17, SEQ ID NO: 29), expressed in Pichia pastoris (protein, listed as Ganoderma lucidum)
chain: MVKFQSLLSCVTLLFAASAHAGIGPKADLTISNANIAPDGYTRAAVVVNGVFPGPLITGNKGDRFQLNVIDQLTNHTMLKTTSIHWHGFFQKGTNWADGPAFINQCPIASGHSFLYDFQVPDQAGTFWYHSHLSTQYCDGLRGPFVVYDPKDPLKGLYDVDNDSTVITLSDWYHVAARLGPSFPLGSDSTLINGLGRSTTNATAGLAVINVTQGKRYRFRLVSLSCDPNYTFSIDGHDMSVIEADGIATQPVTANAIQIFSAQRYSFVLTANQTIGNYWIRANPSFGNIGFTNGINSAILRYSGADPIEPTTAQQTTQNLLNEVDLHPFVAKQTPGRATQGGTDVAINMVFNFNGSNFFINNASFTPPTVPVLLQILSGAQAAQDLLPSGSVYTLPINKSIELTFPATVNAPGAPHPFHLHGHSFAVVRSAGSTEYNYNNPVWRDVVSTGTPAAGDNVTIRFQTDNPGPWFLHCHIDFHLEAGFAVVFAEDTADTSLANHVPQAWSDLCPTYDALSADDH
Regarding B1, the “glucose release compared to the other tested laccases” value in data set [4], in data set [5] and in data set [6] was “significantly enhanced” throughout. Further, the Km (commonly the concentration of substrate that gives half-maximal velocity) in data set [7] is 995 µM; in data set [7] (listed as GILCC1), 996 µM. For the same molecule, the pH optimum in data set [7] (literature) is 2.6.

B2: Ganoderma lucidum CBS229.93 laccase: Native laccase secreted by Ganoderma lucidum CBS229.93, about 62.5 kDa (protein, listed as Ganoderma lucidum)
chain: MAKFQSLLSCVTLLFAASAYAGIGPKTDLTISNADVAPDGYTRAAVVVNGVFPAPLITGNKGDRFQLNVIDQMTNHTMLKSTSIHWHGFFQKGTNWADGPAFINQCPISSGHSFLYDFQVPDQAGTFWYHSHLSTQYCDGLRGPFVVYDPKDPLKKLYDIDDDSTVITLTDWYHVAARLGPRFPLGSDSTLINGLGRSTTNVTADLAVINVTQGKRYRFRLVSLSCDPNYTFSIDDHNMTVIEADGIETQPVTVNAIQIFSAQRYSFVLTANQTIDNYWIRANPNFGNVGFTDGINSAILRYAGADPVEPTTSQQTTQNLLNEVDLHPFVPKRTPGQPTQGGVDTAINMVFNFNGSNFFINNASFVPPTVPVLLQILSGAQAAQDLLPSGSVYTLPVNKSIELTFPATANAPGAPHPFHLHGHAFAVVRSAGSTVYNYDNPVWRDVVSTGTPAAGDNVTIRFQTDNPGPWFLHCHIDFHLEAGFAVVFAEDPTDTSLANPVPKAWSDLCPTYDALSVDDQ
With B2, the Km in data set [8] (pH 5) and in data set [8] (laccase expressed in Ganoderma lucidum CBS229.93 (native)) was 107 µM throughout.
